{"source": "patent US20190151304A1", "about": "“METHODS AND PHARMACEUTICAL COMPOSITIONS FOR THE TREATMENT OF AUTOIMMUNE INFLAMMATORY” (INSERM (INSTITUT NATIONAL DE LA SANTÉ ET DE LA RECHERCJAE …, priority 2016, published 2019)", "key": {"HEK-OX1R cells": {"tested_on": "HEK-OX1R cells", "experiment": "Cells growth determination, HEK-OX1R cells", "format": "cell-based", "settings": "48 hr; OxA 0.1 μM, SB408124 increasing concentrations", "description": "FIG. 12: Determination of the inhibition of cellular growth of HEK-OX1R cells and colon adenocarcinoma cells (HT-29) induced by 0.1 μM of OxA or various concentrations of SB408124 antagonist. HEK-OX1R cells (black column) and HT-29 cells (white column) were incubated with 0.1 μM of OxA and indicated increasing concentration of SB408124, and cells were counted after 48 hr incubation. Results are expressed as the percentage of total viable cells.\nCells growth determination and apoptosis assay: HEK-OX1R cells or colon adenocarcinoma HT-29 cells were seeded, grown and maintained at 37° C. in a humidified 5% CO2/air incubator. After 24 hr culture, cells were treated with or without Orexin-A peptide or SB408124 antagonist, previously dissolved in DMSO, to be tested at the concentration indicated in the figure legends. After 48 hr of treatment, adherent cells were harvested by Trip1E (Life Technologies, Saint Aubin, France) and manually counted. Apoptosis was determined using the Guava PCA system and the Guava nexin kit."}, "DSS-induced colitis mice": {"tested_on": "DSS-induced colitis mice", "experiment": "DSS-induced colitis mice model (Disease Activity Index, colon length)", "format": "in vivo, Balb/c mice", "description": "FIG. 2: OXA ameliorates the DAI (weight and colitis score) of DSS-induced colitis mice. Mice were orally treated with 5% DSS for 7 days in the presence or in the absence of daily intraperitoneal injection of OxA (0.22 μmoles/kg). Left, determination of gain or loss of weight in the absence of DSS treatment (Control,▴), in the presence of DSS treatment (DSS,▪) and in the presence of DSS associated to OxA treatment (DSS+OxA,●). Right, evaluation of Disease Activity Index (DAI) scored by measuring weight, length of colon, diarrhea and blood presence in the stool in DSS untreated control mice (Control,A), in DSS treated mice (DSS,▪) and in DSS treated mice associated to OxA treatment (DSS+OxA,●).\nFIG. 14: Effect of daily ip inoculation of OxA, Suvorexant and Almorexant on the length of colon from DSS—(dextran sulfate sodium) treated mice mimicking the acute ulcerative colitis disease. A. Mice were treated with 5% (w/v) DSS in drinking water and daily injected with 20 μg of OxA (OXA IP), 20 μg of Suvorexant (Suvo) or 20 μg of Almorexant (Almo). Control (wt) or treated DSS mice (DSS) were daily injected with 100 μl PBS. After one week of treatment, mice were sacrificed and the length of colon which represented a good marker of inflammation state, was measured. […] B. quantification of colon length from 5 different DSS-treated mice injected with OxA (DSS+OXA IP), Almorexant (DSS+Almo), Suvorexant (DSS+Suvo) or not injected (WT and DSS). NS, no significant; *, p<0.05; ** p<0.001\nBased on these observations, we have investigated the effect of Orexin A (OxA) on acute inflammation in mice treated with Dextran Sulfate Sodium (DSS). OxA was preferentially chosen in these experiments since the presence of two disulphide bridges confers it more stability. DSS induces acute colitis characterized by weight loss, bloody diarrhea, intestinal ulcerations and infiltrations with granulocytes.\nDSS-induced colitis mice models: Balb/c mice were orally treated by 5% (w/v) of Dextran Sulfate Sodium (DSS) for 7 days. Orexin treatment was carried out in DSS treated mice by daily intraperitoneal injection of OxA (0.22 μmoles/kg) for 7 days. Weight and colitis symptoms (diarrhea, blood in the stool . . . ) for each mouse was daily measured. After 7 days of treatment, animals were sacrificed and colons were resected to further analyses (size, histological aspect, cytokine assays).\nThe inventors have thus investigated the effect of daily intraperitoneal inoculation of OxA, Suvorexant and Almorexant in the experimental context of EXAMPLE 1 (colitis). In particular they investigated the effects of the drugs on the length of colon from DSS-(dextran sulfate sodium) treated mice mimicking the acute ulcerative colitis disease. […]"}}, "note": "No end group written: not given here.", "data": [{"substance": "OxA: neuropeptide, endogenous ligand of OX1R and OX2R, with two disulphide bridges (QPLPDCCRQKTCSCRLYELLHGAGNHAAGILTL; disulfide (positions not given here); ends not checked; also: two disulphide bridges, pairing not given here; UniProt O43612 34-66, looked up)", "values": [{"measurement": "Inhibition of cellular growth of HEK-OX1R cells", "setting": "HEK-OX1R cells", "result": "strong inhibition"}, {"measurement": "Protection from DSS induced acute ulcerative colitis (length of colon)", "setting": "DSS-induced colitis mice; 5% DSS in drinking water, 20 μg daily ip, one week", "result": "protect mice from DSS induced acute ulcerative colitis disease"}, {"measurement": "Disease Activity Index (DAI) scored by measuring weight, length of colon, diarrhea and presence of blood in the stool", "setting": "DSS-induced colitis mice; 5% DSS orally 7 days, daily intraperitoneal OxA 0.22 μmoles/kg", "result": "ameliorates"}]}]}
